From US20050250801A1, “Method of treating cancer with azaspirane compositions” (priority 2003, published 2005)
Structures can show the parent of a compound that is named as a salt.

Assay: Excretion of radioactivity after single oral administration to male rats, target dose 1 mg free base/kg
Assay type: in vivo, Sprague Dawley rats
Design: Excretion of Radioactivity: unit not given beside the values
Source text: [^14C] N,N,-diethyl-8,8-dipropyl-2-azaspiro[4,5]decane-2-propanamine dimaleate salt, (“Compound II”) with a specific activity of 91 uCi/mg and chemical purity >99%, and non-radiolabeled dimaleate salt of N,N,-diethyl-8,8-dipropyl-2-azaspiro[4,5]decane-2-propanamine dimaleate (Compound 1) chemical purity >98%, respectively, were used in this study. The site of the radiocarbon label in Compound II is depicted by an asterisk in Formula II. The non-radiolabeled material was used for reference purposes. The radiolabeled material was stored at ca […] in the dark and the non-radiolabeled material at ca −20° C. in the dark.
Three healthy male Sprague Dawley rats (Crl:CD(SD)BR), age ca 8-9 weeks, body weights at dosing 237-255 g, were supplied by Charles River (UK) Limited. The animals were housed in holding cages suitable for this species for 8 days prior to use. SDS Rat and Mouse Maintenance Diet No. 1, (Special Diets Services, Witham Essex), and mains quality water were available ad libitum throughout. The diet and water supplied to the animals were routinely analyzed for quality and no problems were detected. Holding and study areas had automatic control of light cycle and temperature. The actual range of temperature measured during the study was 17-25° C. with relative humidity measured at 60%.
The dose was prepared for oral administration on the day of dosing. […]
For each rat, an aliquot of the dose solution was administered orally by gavage. […] For each dose, the combined weight of dose and dosing equipment were recorded prior to dosing and the discharged dosing equipment was weighed after dosing. The concentration of radioactive material in each dose solution was also determined.
Immediately following dosing, the rats were placed into all glass metabolism cages suitable for the quantitative collection of excreta and expired air. All samples were collected into individual, uniquely labeled containers.
[…] The collection containers were cooled by solid CO2 during the first 48 hours after dosing.
[…] Collection containers were cooled by solid CO2 during the first 48 hours.
At the time of each feces collection, each cage was washed with water (ca 750 mL) and the washings were retained for radioassay. During the periods 0-24 h and 24-48 hours after dosing, expired air was passed through 2 serial traps containing ethanolamine:ethoxyethaonol (3:7, v/v) in order to effect the removal of CO2. The trap solvent was sampled for radioassay at the end of each collection period.
At 168 hours post dose, each animal was killed by CO2 narcosis and cervical dislocation. Gastrointestinal tracts were removed and retained separately from the carcasses in preparation for radioassay.
All urine and feces samples were stored frozen ([…]) prior to and after analysis. Cage washes were stored at room temperature until analysis was complete and were then discarded. All carcasses and gastro-intestinal tracts were stored frozen at ca-20° C. prior to analysis.
Duplicate aliquots of urine (ca 0.3 mL) and cage washings (ca 1 mL) were dispensed, diluted to 1 mL with distilled water (if considered necessary) and mixed with Quickzint 1 scintillation fluid (10 mL; Zinsser Analytic Maidenhead, UK).
Feces were homogenised in 1 to 2 volumes of water with the sample and homogenate weight recorded. Duplicate aliquots (ca 0.3) were taken from each sample and dispensed onto combustopads contained in combustocones (Can berra Packard Limited, Pangbourne, UK). When dry, these samples were combusted using a Packard Tri-Carb 306 Automatic Sample Oxidiser. The resultant ^14CO2 generated was collected by absorption in Carbo-Sorb® (8 mL; Can berra Packard Limited) to which Permafluor®E^+ scintillation fluid (10 mL; Can berra Packard Limited) was added.
For each rat, the carcass and gastro-intestinal tract with contents were solubilised in Soluene 350 (Canberra Packard). When dissolved, portions of the digest (ca 0.1 mL) were taken for liquid scintillation spectrometry. […]

CCCC1(CCC)CCC2(CCN(CCCN(CC)CC)C2)CC1 [Compound II, [^14C] N,N,-diethyl-8,8-dipropyl-2-azaspiro[4,5]decane-2-propanamine dimaleate salt]
Dose recovered in expired air (0-48 hours collection): Less than 0.2%
Excretion of Radioactivity (Cage Wash 0-24 hours, #1 male): 0.1
Excretion of Radioactivity (Cage Wash 0-24 hours, #2 male): 0.1
Excretion of Radioactivity (Cage Wash 0-24 hours, #3 male): *<0.1
Excretion of Radioactivity (Cage Wash 0-24 hours, Mean): ^+0.1
Excretion of Radioactivity (Cage Wash 0-168 hours, #1 male): 0.7
Excretion of Radioactivity (Cage Wash 0-168 hours, #2 male): 1.0
Excretion of Radioactivity (Cage Wash 0-168 hours, #3 male): 1.3
Excretion of Radioactivity (Cage Wash 0-168 hours, Mean): 1.0
Excretion of Radioactivity (Cage Wash 24-48 hours, #1 male): 0.1
Excretion of Radioactivity (Cage Wash 24-48 hours, #2 male): <0.1
Excretion of Radioactivity (Cage Wash 24-48 hours, #3 male): 0.1
Excretion of Radioactivity (Cage Wash 24-48 hours, Mean): 0.1
Excretion of Radioactivity (Cage Wash 48-72 hours, #1 male): <0.1
Excretion of Radioactivity (Cage Wash 48-72 hours, #2 male): 0.2
Excretion of Radioactivity (Cage Wash 48-72 hours, #3 male): 0.2
Excretion of Radioactivity (Cage Wash 48-72 hours, Mean): 0.1
Excretion of Radioactivity (Cage Wash 72-96 hours, #1 male): 0.1
Excretion of Radioactivity (Cage Wash 72-96 hours, #2 male): 0.2
Excretion of Radioactivity (Cage Wash 72-96 hours, #3 male): 0.3
Excretion of Radioactivity (Cage Wash 72-96 hours, Mean): 0.2
Excretion of Radioactivity (Cage Wash 96-120 hours, #1 male): 0.1
Excretion of Radioactivity (Cage Wash 96-120 hours, #2 male): 0.2
Excretion of Radioactivity (Cage Wash 96-120 hours, #3 male): 0.2
Excretion of Radioactivity (Cage Wash 96-120 hours, Mean): 0.2
Excretion of Radioactivity (Cage Wash 120-144 hours, #1 male): 0.1
Excretion of Radioactivity (Cage Wash 120-144 hours, #2 male): 0.1
Excretion of Radioactivity (Cage Wash 120-144 hours, #3 male): 0.3
Excretion of Radioactivity (Cage Wash 120-144 hours, Mean): 0.2
Excretion of Radioactivity (Cage Wash 144-168 hours, #1 male): 0.2
Excretion of Radioactivity (Cage Wash 144-168 hours, #2 male): 0.2
Excretion of Radioactivity (Cage Wash 144-168 hours, #3 male): 0.2
Excretion of Radioactivity (Cage Wash 144-168 hours, Mean): 0.2
Recovery of Radioactivity (Cage Washings, 168 hour collection period, #3 male): *1.3 % administered dose
Recovery of Radioactivity (Cage Washings, 168 hour collection period, Mean): ^+1.0 % administered dose
Recovery of Radioactivity (Carcass, at 168 hours, #1 male): 11.3 % administered dose
Recovery of Radioactivity (Carcass, at 168 hours, #2 male): 14.1 % administered dose
Recovery of Radioactivity (Carcass, at 168 hours, #3 male): 14.9 % administered dose
Recovery of Radioactivity (Carcass, at 168 hours, Mean): 13.5 % administered dose
Recovery of Radioactivity (Expired air 1, #1 male): *<0.1 % administered dose
Recovery of Radioactivity (Expired air 1, #2 male): *<0.1 % administered dose
Recovery of Radioactivity (Expired air 1, #3 male): *<0.1 % administered dose
Recovery of Radioactivity (Expired air 1, Mean): ^+<0.1 % administered dose
Recovery of Radioactivity (Expired air 2, #1 male): *<0.1 % administered dose
Recovery of Radioactivity (Expired air 2, #2 male): *<0.1 % administered dose
Recovery of Radioactivity (Expired air 2, #3 male): *<0.1 % administered dose
Recovery of Radioactivity (Expired air 2, Mean): ^+<0.1 % administered dose
Excretion of Radioactivity (Feces 0-24 hours, #1 male): 18.2
Excretion of Radioactivity (Feces 0-24 hours, #2 male): 14.7
Excretion of Radioactivity (Feces 0-24 hours, #3 male): 17.7
Excretion of Radioactivity (Feces 0-24 hours, Mean): 16.9
Excretion of Radioactivity (Feces 0-168 hours, #1 male): 64.0
Excretion of Radioactivity (Feces 0-168 hours, #2 male): 65.7
Excretion of Radioactivity (Feces 0-168 hours, #3 male): 66.7
Excretion of Radioactivity (Feces 0-168 hours, Mean): 65.5
Excretion of Radioactivity (Feces 24-48 hours, #1 male): 16.3
Excretion of Radioactivity (Feces 24-48 hours, #2 male): 17.2
Excretion of Radioactivity (Feces 24-48 hours, #3 male): 14.5
Excretion of Radioactivity (Feces 24-48 hours, Mean): 16.0
Excretion of Radioactivity (Feces 48-72 hours, #1 male): 10.0
Excretion of Radioactivity (Feces 48-72 hours, #2 male): 15.2
Excretion of Radioactivity (Feces 48-72 hours, #3 male): 12.7
Excretion of Radioactivity (Feces 48-72 hours, Mean): 12.6
Excretion of Radioactivity (Feces 72-96 hours, #1 male): 7.5
Excretion of Radioactivity (Feces 72-96 hours, #2 male): 7.8
Excretion of Radioactivity (Feces 72-96 hours, #3 male): 8.0
Excretion of Radioactivity (Feces 72-96 hours, Mean): 7.8
Excretion of Radioactivity (Feces 96-120 hours, #1 male): 5.5
Excretion of Radioactivity (Feces 96-120 hours, #2 male): 4.1
Excretion of Radioactivity (Feces 96-120 hours, #3 male): 6.4
Excretion of Radioactivity (Feces 96-120 hours, Mean): 5.3
Excretion of Radioactivity (Feces 120-144 hours, #1 male): 3.5
Excretion of Radioactivity (Feces 120-144 hours, #2 male): 3.5
Excretion of Radioactivity (Feces 120-144 hours, #3 male): 4.3
Excretion of Radioactivity (Feces 120-144 hours, Mean): 3.8
Excretion of Radioactivity (Feces 144-168 hours, #1 male): 3.0
Excretion of Radioactivity (Feces 144-168 hours, #2 male): 3.2
Excretion of Radioactivity (Feces 144-168 hours, #3 male): 3.1
Excretion of Radioactivity (Feces 144-168 hours, Mean): 3.1
Recovery of Radioactivity (GI Tract, at 168 hours, #1 male): 13.8 % administered dose
Recovery of Radioactivity (GI Tract, at 168 hours, #2 male): 13.3 % administered dose
Recovery of Radioactivity (GI Tract, at 168 hours, #3 male): 10.5 % administered dose
Recovery of Radioactivity (GI Tract, at 168 hours, Mean): 12.5 % administered dose
Recovery of Radioactivity (Total, 168 hour collection period, #1 male): 96.7 % administered dose
Recovery of Radioactivity (Total, 168 hour collection period, #2 male): 103.0 % administered dose
Recovery of Radioactivity (Total, 168 hour collection period, #3 male): 103.2 % administered dose
Recovery of Radioactivity (Total, 168 hour collection period, Mean): 101.0 % administered dose
Excretion of Radioactivity (Urine 0-6 hours, #1 male): 0.1
Excretion of Radioactivity (Urine 0-168 hours, #1 male): 6.9
Excretion of Radioactivity (Urine 0-168 hours, #2 male): 8.9
Excretion of Radioactivity (Urine 0-168 hours, #3 male): 9.8
Excretion of Radioactivity (Urine 0-168 hours, Mean): 8.5
Excretion of Radioactivity (Urine 6-24 hours, #1 male): 0.4
Excretion of Radioactivity (Urine 6-24 hours, #2 male): 0.5
Excretion of Radioactivity (Urine 6-24 hours, #3 male): 0.5
Excretion of Radioactivity (Urine 6-24 hours, Mean): 0.5
Excretion of Radioactivity (Urine 24-48 hours, #1 male): 1.0
Excretion of Radioactivity (Urine 24-48 hours, #2 male): 1.4
Excretion of Radioactivity (Urine 24-48 hours, #3 male): 1.4
Excretion of Radioactivity (Urine 24-48 hours, Mean): 1.3
Excretion of Radioactivity (Urine 48-72 hours, #1 male): 1.2
Excretion of Radioactivity (Urine 48-72 hours, #2 male): 1.5
Excretion of Radioactivity (Urine 48-72 hours, #3 male): 1.7
Excretion of Radioactivity (Urine 48-72 hours, Mean): 1.5
Excretion of Radioactivity (Urine 72-96 hours, #1 male): 1.3
Excretion of Radioactivity (Urine 72-96 hours, #2 male): 1.6
Excretion of Radioactivity (Urine 72-96 hours, #3 male): 2.0
Excretion of Radioactivity (Urine 72-96 hours, Mean): 1.6
Excretion of Radioactivity (Urine 96-120 hours, #1 male): 1.2
Excretion of Radioactivity (Urine 96-120 hours, #2 male): 1.5
Excretion of Radioactivity (Urine 96-120 hours, #3 male): 1.6
Excretion of Radioactivity (Urine 96-120 hours, Mean): 1.4
Excretion of Radioactivity (Urine 120-144 hours, #1 male): 0.9
Excretion of Radioactivity (Urine 120-144 hours, #2 male): 1.3
Excretion of Radioactivity (Urine 120-144 hours, #3 male): 1.3
Excretion of Radioactivity (Urine 120-144 hours, Mean): 1.2
Excretion of Radioactivity (Urine 144-162 hours, #1 male): 0.8
Excretion of Radioactivity (Urine 144-162 hours, #2 male): 1.0
Excretion of Radioactivity (Urine 144-162 hours, #3 male): 1.2
Excretion of Radioactivity (Urine 144-162 hours, Mean): 1.0
Dose remaining in the carcass (at 168 hours): ~13.5%
Dose remaining in the gastro-intestinal tract (at 168 hours): ~12.5%
Radioactive dose recovered in feces, mean (by 168 hours after dosing): 65.5%
Radioactive dose recovered in urine, mean (by 168 hours after dosing): 8.5%
Dose recovered in excreta and cage washings, mean (full 168 hour collection period): 75.0%
Recovery of administered radioactive dose (total, range over animals, 168 hours): 96.7-103.2%
Dose recovered in the excreta (up to 120 hours after dosing): ~66%
